In brackets after ≈: the same amount, converted by molar mass.
Details: 25° C.; for solubility enhanced versus unprotected H-Gly-Gly-Gly-OH: CPME, relative to H-Gly-Gly-Gly-OH

Row | SMILES | solubility in cyclopentyl methyl ether (CPME) [mM] | solubility enhanced versus unprotected H-Gly-Gly-Gly-OH
1 | CC(C)[Si](OCCCCCCCCCCCOc1ccc(COC(=O)CNC(=O)CNC(=O)CN)c(OCCCCCCCCCCCO[Si](C(C)C)(C(C)C)C(C)C)c1)(C(C)C)C(C)C [H-Gly-Gly-Gly-O-TIPS2] | 181 (≈ 175 mg/mL) | about 5,000 fold
2 | CC(C)[Si](OCC(CO[Si](C(C)C)(C(C)C)C(C)C)(CO[Si](C(C)C)(C(C)C)C(C)C)NC(=O)CCCCCCCCCCOc1ccc(COC(=O)CNC(=O)CNC(=O)CN)c(OCCCCCCCCCCC(=O)NC(CO[Si](C(C)C)(C(C)C)C(C)C)(CO[Si](C(C)C)(C(C)C)C(C)C)CO[Si](C(C)C)(C(C)C)C(C)C)c1)(C(C)C)C(C)C [H-Gly-Gly-Gly-O-TIPS6] | 286 (≈ 522 mg/mL) | about 9,000 fold
